Test results reported in patent US20110160303A1, “N-ALKYLCARBONYL-AMINO ACID ESTER AND N-ALKYLCARBONYL-AMINO LACTONE COMPOUNDS AND THEIR USE” (Edward Tak WEI, priority 2005, published 2011).

Columns and labels:
[1] = system: irritated skin (acneiform dermatitis treated with Tazorac); experiment: Study 5: ointment on skin irritated by Tazorac; type: in vivo, human; conditions: 1.5% in Aquaphor
Method: A person was treated with Tazorac® (tazarotene topical gel) for acneiform dermatitis on their cheeks. After using these medications for several days, they noted redness, itching, and uncomfortable burning sensations on the skin where these medications had been placed. A 1.5% preparation of 2-isopropyl-5-methyl-cyclohexanecarbonyl α-alanine methyl ester in Aquaphor® ointment was then applied to the sites of irritation. Sensations of coolness on the skin were noted within 5 minutes and lasting for an average of 30 minutes. The discomfort of the irritated skin was abated within five minutes and the subject felt better.

face = experiment: Study 3: towelette used to wipe the face; type: in vivo, human
Method: 2-Isopropyl-5-methyl-cyclohexanecarbonyl D-alanine methyl ester was dissolved in warm 10% propylene-glycol/90% distilled water solution to give a concentration of either 0.1 or 0.5% wt/vol (1 or 5 mg/mL). Six to seven milliliters of these solutions were then applied with a pipette onto a paper napkin (Luncheon Napkins, Kirkland Signature brand from Costco, Inc.) The napkin was 1-ply with a 30.4×29.5 cm dimension. Each napkin was then hermetically sealed in a plastic envelope (Foodsaver by Tilia). On two separate occasions involving golfing trips to Los Angeles, Calif., USA, where air temperatures exceeded […] (90° F.), these towelettes were used to wipe the face. Pleasant cooling sensations were obtained that lasted for about 10 minute for the 0.1% concentration towelette and about 60 minutes for the 0.5% towelette.

skin above the upper lip = experiment: Cooling sensation on facial skin, ointment applied to skin above the upper lip; type: in vivo, human; set-up: key to refreshing cooling and absence of skin irritation or eye irritation (“perfect cool”): (*) denotes compounds with refreshing cooling and absence of skin irritation or eye irritation after facial skin or periorbital applications; a “perfect cool.”; conditions: for Duration of Skin Cooling: 40 mM (1% wt/vol) ointment; for Duration of Skin Cooling / Duration of Action On-Off (minutes): On (onset) / Duration of Action On-Off (minutes): duration (offset minus onset) / Duration of Action On-Off (minutes): Off (offset): skin above upper lip; for Duration of Action On-Off (minutes): On (onset): 40 mM (~1% wt/vol) Aquaphor ointment, 40 to 70 mg, time to reach 2 units of coolness; for Duration of Action On-Off (minutes): duration (offset minus onset) / Duration of Action On-Off (minutes): Off (offset): 40 mM Aquaphor ointment; for Duration of Action On-Off (minutes): Off (offset): time when coolness drops below 2 units; for refreshing cooling and absence of skin irritation or eye irritation (“perfect cool”): after facial skin or periorbital applications
Source text: A reliable place for topical application is the skin above the upper lip (above the vermilion border of the lips), on the philtrum, lateral to the philtrum until the nasolabial folds, and on the lower nostrils (subnasale). This part of the face is known to be densely innervated with cold receptors, second only to the surfaces of the eyeball and anogenitalia. A second location is on or below the malar eminence (cheekbone). The skin above the cheekbone is thicker than above the lips, and therefore has a higher threshold for activation. At both loci, tingling, cool and cold sensations in the skin may be experienced and rated for time of onset and intensity.
The intensity of the subjective skin sensation is rated as 0, 1, 2 or 3 with: 0 as no change; 1 as slight coolness, cold, or tingling; 2 as clear-cut signal of coolness, cold, or tingling; and 3 as robust cooling or cold. The intervals for recording sensations are 5 to 10 minutes, until two successive zeroes are obtained. The results (shown in FIGS. 1 and 2) are averaged values of 4 to 6 separate trials in the same individual. The data are plotted using SigmaPlot® (Systat Software, Point Richmond Calif.) and a smoothing function with a negative exponential was used for analysis and statistical fit of the results. Confirmatory trials of cooling action of the long-acting NACE compounds were obtained in 2 to 4 individuals but not quantified for some because of the large number of chemicals that were evaluated.
(§1) The onset of drug action is taken as the time to reach 2 units of coolness intensity, and offset of drug action is the time when coolness intensity drops below 2, after previously surpassing 2 units. The duration of cooling action is defined as the offset time minus the onset time. […] The quality of the sensation is noted, for example, as pure refreshing coolness, or if the sensation is accompanied by irritation (stinging or burning). The quality of the sensation is not rated for intensity.
For bioassay on the skin, approximately 30 mg was stirred and dissolved in 3 g of warm liquid Aquaphor® ointment to a yield a 40 mM (˜1% wt/vol) ointment. The exact amount was adjusted so that the molar equivalent was about 35 to 40 mM. After cooling, 40 to 70 mg of the solid ointment was placed on the tip of a plastic stick and applied to the skin above the upper lip, on the philtrum, and lateral to the philtrum, up to the nasolabial folds, of test subjects and the onset and duration of cooling sensations noted.
The intensity of the subjective skin sensation was rated as 0, 1, 2 or 3 with: 0 as no change; 1 as slight coolness, cold, or tingling; 2 as clear signal of coolness, cold, or tingling; and 3 as robust cooling or cold. The intervals for recording sensations were 5 to 10 minutes, until two successive zeroes were obtained. The results (shown in FIGS. 1 and 2) are averaged values of 4 to 6 separate trials in the same individual. The data are plotted using SigmaPlot® (Systat Software, Point Richmond, Calif., USA) and a smoothing function with a negative exponential was used for analysis and statistical fit of the results.
as §1, with “was” for “is”, “was also noted: such” for “is noted, for example,”
Test compounds were singly applied to the skin above the upper lips at a 40 to 70 mg dose of a 1% wt/vol ointment.

oral cavity = experiment: Oral cavity test, substance placed on dorsal surface of the tongue; type: in vivo, human; conditions: for sensory irritation in the mouth: Study 7, same test conditions
Method: The subject is instructed to close and hold the substance in the mouth for at least 10 seconds and not to swallow. The description of sensations is then recorded at 5 minute intervals.
The compounds of Formula (1) and (2) are white crystalline solids at room temperatures. These compounds were tested as such, or mixed 1:1 with powdered or granulated sugar. The test substances were applied at 1 to 5 mg on the mid-point of the dorsal surface of the tongue using a metal spatula or a plastic applicator. After depositing the test substance on the tongue, the subject was instructed to keep the mouth closed and allow the fluids of the mouth to inter-mix with the test substance and to distribute it to the back of the mouth (oropharynx). The presence and duration of subjective sensations from the mouth was then noted.
In normal subjects, the effects of the D-Ala methyl and ethyl ester compounds falling within Formula (1) ((R)-2-[((1R,2S,5R)-2-isopropyl-5-methyl-cyclohexanecarbonyl)-amino]-propionic acid methyl or ethyl ester)) were examined. Three doses of 1, 2 and 4 mg per application were examined and compared to a similar dose of the L-Ala methyl or ester analog ((S)-2-[((1R,2S,5R)-2-isopropyl-5-methyl-cyclohexanecarbonyl)-amino]-propionic acid methyl or ethyl ester). At the 2 or 4 mg dose, all compounds produced pleasant and robust cooling sensations on the tongue, extending down to the back of throat, and lasted for about 30 minutes and longer. The onset effect was usually within 30 seconds of application.

periorbital area = experiment: Study 4: 1% ointment applied bilaterally to the periorbital area; type: in vivo, human; conditions: for irritation of skin and eye surfaces: periorbital application
Source text: A 1% preparation of 2-isopropyl-5-methyl-cyclohexanecarbonyl D-alanine methyl ester in Aquaphor® ointment was applied bilaterally to the periorbital area of four individuals. […] This alerting effect lasted for about one hour. This experiment was then repeated three days later in the evening with the same individuals whose occupations required daylong activities before a computer screen. Again, application of the ointment about the periorbital area was reported to relieve fatigue, enhance visual acuity, and to increase attention span and focus. Sensations of refreshment and improved mood were also noted.

[2] = Octanol/water partition coefficient; type: physicochemical
Method: The octanol/water partition coefficients (given in log P units) for a number of compounds were determined and are shown in Table 7, together with the threshold for cooling on the tongue tested at 40 mM. […] A longer duration of action was not precisely matched with log P values.

tongue = experiment: Threshold for cooling on the tongue; type: in vivo, human; conditions: for Threshold tongue: threshold for cooling on the tongue
Method: Watson et al. (U.S. Pat. No. 4,178,459) tested the properties of N-substituted p-menthane carboxamides on volunteers by putting filter paper (1×1 cm), impregnated with a known amount of compound, onto the dorsal surface of the tongue of the test subject. After 30 seconds, the subject was required to report presence or absence of a cooling effect. […] The average threshold of (−)-menthol for 6 subjects was 0.25 μg, but there was a 100-fold variation in individual sensitivity. As noted above, coolness signals detected from the dorsal surface of the tongue may be confounded by gustatory, olfactory, and other variables, as well as by dilution from saliva. The octanol/water partition coefficients (given in log P units) for a number of compounds were determined and are shown in Table 7, together with the threshold for cooling on the tongue tested at 40 mM. […] A longer duration of action was not precisely matched with log P values.

[3] = 1% in Aquaphor, periorbital, four individuals

| Structure (SMILES) | Duration of Skin Cooling (skin above the upper lip) [h] | Duration of Action On-Off (minutes): On (onset) (skin above the upper lip) [min] | Duration of Action On-Off (minutes): duration (offset minus onset) (skin above the upper lip) [min] | Duration of Action On-Off (minutes): Off (offset) (skin above the upper lip) [min] | refreshing cooling and absence of skin irritation or eye irritation (“perfect cool”) (skin above the upper lip) | irritation of skin and eye surfaces (periorbital area) | Threshold tongue (tongue) [µg] | Log P [2] | other results |
| --- | --- | --- | --- | --- | --- | --- | --- | --- | --- |
| COC(=O)[C@@H](C)NC(=O)[C@@H]1C[C@H](C)CC[C@H]1C(C)C [D-Ala Me Ester, (R)-2-[((1R,2S,5R)-2-isopropyl-5-methyl-cyclohexanecarbonyl)-amino]-propionic acid methyl ester] | 1.9 | 1 | 114 | 115 | D-Ala Me Ester (*) | No irritation of the eye surfaces | – | – | duration of coolness on irritated skin (average) [1]: 30 min; time until discomfort of the irritated skin was abated [1]: five; onset of sensations of coolness on irritated skin ([1]; one subject): ≤ 5 min; duration of pleasant cooling sensations, 0.1% towelette (face; 0.1% wt/vol in 10% propylene-glycol/90% water on napkin, face): about 10 minute; eye irritation (face; 0.1 or 0.5% towelette): No eye irritation; duration of pleasant cooling sensations, 0.5% towelette (face; 0.5% wt/vol in 10% propylene-glycol/90% water on napkin, face): about 60 minutes; duration of cooling sensations on the tongue (oral cavity; dose of 1 to 2 mg, normal subjects): about 30 minutes; duration of alerting effect (periorbital area; 1% in Aquaphor, periorbital): about one; duration of coolness on the skin (average) (periorbital area; [3]): 30 min; onset of coolness on the skin (periorbital area; [3]): ≤ 1 min |
| CCOC(=O)CNC(=O)[C@@H]1C[C@H](C)CC[C@H]1C(C)C [Gly Et Ester (WS-5), N-p-menthanecarbonyl glycine ethyl ester, reference compound] | 0.5 | 4 | 33 | 37 | Gly Et Ester (WS-5) (*) | – | 0.2 | – | logP [2]: 2.9; sensory irritation in the mouth (oral cavity): some sensory irritation |
| CCOC(=O)CN(C)C(=O)C1CC(C)CCC1C(C)C (stereo not drawn) [Sar Et Ester] | 1.0 | 2 | 63 | 65 | Sar Et Ester (*) | – | 0.8 | 2.9 | times less potent than WS-11 on the tongue threshold test (tongue; in vivo): 2.7 times; duration of action relative to WS-11 (skin above the upper lip; in vivo): five; sensory irritation in the mouth (oral cavity): some sensory irritation |
| CCNC(=O)C1CC(C)CCC1C(C)C (stereo not drawn) [WS-3, reference compound] | – | 5 | – | 23 | – | significant skin and eye irritation | 0.2 | 3.7 | – |
| CC1CCC(C(C)C)C(C(=O)NC(C)(C)CO)C1 (stereo not drawn) [WS-11, reference compound] | 0.2 | 8 | 10 | 18 | – | significant skin and eye irritation | 0.3 | 2.9 | – |
| CC1CCC(C(C)C)C(C(=O)NC(C)(C)C)C1 (stereo not drawn) [WS-14, reference compound] | 0.1 | 15 | 8 | 23 | – | significant skin and eye irritation | 0.4 | 4.5 | – |
| CNC(=O)C(C)(C(C)C)C(C)C [WS-23, N-2,3-trimethyl-2-isopropylbutanamide, reference compound] | – | – | – | – | – | significant skin and eye irritation | – | – | – |
